Test results: patent US11235976B2, “Nanocarbon-iron composite system as well as composition, preparation method and use thereof” (Chongqing Lummy Pharmaceutical Co., LTD, priority 2017, dated 2022)

What was measured:
Experiment in all cases: Cell experiment, cell survival rate
Type in all cases: cell-based
Conditions in all cases: 48 h
A549 lung cancer cells = system: A549 lung cancer cells
Protocol: (§1) Cells growing in a log phase are collected, the concentration of the cell suspension is adjusted, 100 μL of cell suspension is added to each well and the cells are plated (edge wells are filled with sterile PBS) at a density of 1×10^3-10^4 cells/well. The cells are incubated for 24 hours at 37° C. under the condition of 5% CO2, a nanocarbon-iron solution having a concentration gradient (nanocarbon content: 125, 62.5, 15.63 and 3.91 μg/mL; and ferric ion content: 13.65, 6.83, 1.71 and 0.43 μg/mL) is added, and three sub-wells are set. Then the cells are incubated for 48 hours at 37° C. under the condition of 5% CO2. 10 μL of CCK8 solution is added to each well and then the cells are continuously incubated for 2 hours. The absorbance of each well is measured at OD=450 nm with the microplate reader. In addition, a negative control group, nanocarbon control groups having the same concentration and iron preparation control groups having the same concentration are set.
as §1, with “and 1” for “100”, “of a 6-well plate” for “and the cells are plated (edge wells are filled with sterile PBS)”, “3×10^4” for “1×10^3-10^4”, “1.71,” for “1.71 and”, “The” for “10 μL of CCK8 solution is added to each well and then the”, “trypsinized and counted.” for “continuously incubated for 2 hours. The absorbance of each well is measured at OD=450 nm with the microplate reader.”

[1] = system: HCT116 colon cancer cells
Protocol: as §1
as §1, with “and 1” for “100”, “of a 6-well plate” for “and the cells are plated (edge wells are filled with sterile PBS)”, “3×10^4” for “1×10^3-10^4”, “1.71,” for “1.71 and”, “The” for “10 μL of CCK8 solution is added to each well and then the”, “trypsinized and counted.” for “continuously incubated for 2 hours. The absorbance of each well is measured at OD=450 nm with the microplate reader.”

[2] = system: Hela cervical cancer cells
Protocol: as §1
as §1, with “and 1” for “100”, “of a 6-well plate” for “and the cells are plated (edge wells are filled with sterile PBS)”, “3×10^4” for “1×10^3-10^4”, “1.71,” for “1.71 and”, “The” for “10 μL of CCK8 solution is added to each well and then the”, “trypsinized and counted.” for “continuously incubated for 2 hours. The absorbance of each well is measured at OD=450 nm with the microplate reader.”

[3] = system: MDA-MB-231 breast cancer cells
Protocol: as §1
as §1, with “and 1” for “100”, “of a 6-well plate” for “and the cells are plated (edge wells are filled with sterile PBS)”, “3×10^4” for “1×10^3-10^4”, “1.71,” for “1.71 and”, “The” for “10 μL of CCK8 solution is added to each well and then the”, “trypsinized and counted.” for “continuously incubated for 2 hours. The absorbance of each well is measured at OD=450 nm with the microplate reader.”

[4] = system: SGC-7901 stomach cancer cells
Protocol: as §1
as §1, with “and 1” for “100”, “of a 6-well plate” for “and the cells are plated (edge wells are filled with sterile PBS)”, “3×10^4” for “1×10^3-10^4”, “1.71,” for “1.71 and”, “The” for “10 μL of CCK8 solution is added to each well and then the”, “trypsinized and counted.” for “continuously incubated for 2 hours. The absorbance of each well is measured at OD=450 nm with the microplate reader.”

[5] = system: SKOV3 ovarian cancer cells
Protocol: as §1
as §1, with “and 1” for “100”, “of a 6-well plate” for “and the cells are plated (edge wells are filled with sterile PBS)”, “3×10^4” for “1×10^3-10^4”, “1.71,” for “1.71 and”, “The” for “10 μL of CCK8 solution is added to each well and then the”, “trypsinized and counted.” for “continuously incubated for 2 hours. The absorbance of each well is measured at OD=450 nm with the microplate reader.”

[6] = iron preparation alone 0.43 μg/mL
[7] = iron preparation alone 1.71 μg/mL
[8] = iron preparation alone 6.83 μg/mL
[9] = iron preparation alone 13.65 μg/mL

In the case of ferrous gluconate, the “Cell Survival Rate” value (A549 lung cancer cells; [6]) is reported as 100%, the “Cell Survival Rate” value (A549 lung cancer cells; [7]) is reported as 100% and the “Cell Survival Rate” value (A549 lung cancer cells; [8]) is reported as 100%. For the same substance, the “Cell Survival Rate” value (A549 lung cancer cells; [9]) was 97.31%, the “Cell Survival Rate” value [1, 6] was 100% and the “Cell Survival Rate” value [1, 7] was 100%. For the same substance, the “Cell Survival Rate” value [1, 8] was 100%, the “Cell Survival Rate” value [1, 9] was 98.67% and the “Cell Survival Rate” value [2, 6] was 100%. For the same substance, the “Cell Survival Rate” value [2, 7] was 100%, the “Cell Survival Rate” value [2, 8] was 100% and the “Cell Survival Rate” value [2, 9] was 97.86%. The “Cell Survival Rate” value [3, 6] was 100%, the “Cell Survival Rate” value [3, 7] was 100% and the “Cell Survival Rate” value [3, 8] was 100%. The “Cell Survival Rate” value [3, 9] was 100%, the “Cell Survival Rate” value [4, 6] was 100% and the “Cell Survival Rate” value [4, 7] was 100%. For the same substance, the “Cell Survival Rate” value [4, 8] was 99.48%, the “Cell Survival Rate” value [4, 9] was 97.43% and the “Cell Survival Rate” value [5, 6] was 100%. For the same substance, the “Cell Survival Rate” value [5, 7] was 100% and the “Cell Survival Rate” value [5, 8] was 96.47%.
